Assay results taken from publication PMC10361461, “Evaluating the solubility of compounds intended for intramammary infusion based upon tests conducted across a range of milk matrices” (PLOS ONE, 2023).
Values after ≈ are worked out from the molar mass of the structure shown. Where a name gives a salt, the structure may show the parent alone. Read-outs that look alike come from different tables or passages of the source. Marks after values point to notes of the source that are not given here. One block for each compound: values may come before it.

Assays:
[1] = cited from earlier work; for Solubility in Water at 25°C: descriptions and ranges based on USP definitions
plasma protein = conditions: cited from earlier work
[2] = Solubility in milk related vehicles, previous study (Li et al., 2022); type: physicochemical; conditions: RT; data ref 6
[3] = cited from earlier work
[4] = cited from earlier work; remark: listed apart in the source
[5] = Solubility assessment in milk vehicles and 10 mM sodium phosphate buffer pH 6.8, HPLC analysis; type: physicochemical; conditions: for USP solubility classification: across tested media; for solubility at 60 min: thermodynamic from solid
Description: Solubility assessment was performed in all milk vehicles listed above. A 10 mM sodium phosphate buffer pH 6.8 was also included as a control. For each solubility sample, an excess amount of drug powder was weighed in a 20-mL glass vial. A suitable volume of the vehicle, pre-equilibrated to the desired temperature, was added to the drug powder. The samples were stirred for 60 minutes at 38°C or 20°–25°C [room temperature (RT)] prior to processing. The temperature of 38°C reflects the rectal temperature the healthy adult cow, 38°C [17].
Upon completion of this portion of the test procedure, approximately 2 mL of the solubility sample was passed through the Phenex-GF 1.2 μm filter to remove the excess drug solid. The filtration and solvent extraction steps were carried out immediately for each sample after the solubility testing was completed. All supplies used in the filtration were pre-equilibrated at the corresponding temperature. […] An aliquot of 0.5 mL filtrate was accurately transferred to a microcentrifuge tube followed by the addition of 1 mL extraction solvent. The extraction solvent was 0.1% TFA in acetonitrile (mobile phase channel B). The mixture was then centrifuged at 10,000 rpm, and about 1 mL of the supernatant was passed through a Phenex-RC 0.45 μm filter. The filtrate was collected in an HPLC autosampler vial and analyzed by the HPLC method described below.
A gradient HPLC method, described in Table 5, was used to analyze the concentration of all drug solubility samples after treatment.

[6] = parameters: method as in earlier work; conditions: cited from earlier work
[7] = room temperature, expressed as free form of cephapirin

Ratio of solubility, Reconstituted whole milk versus raw milk [2]: 1.01
Ratio of solubility, Skim milk versus raw milk [2]: 1.08
Ratio of solubility, Whole milk versus raw milk [2]: 1.05
Ratio of solubility, pH 6.8 buffer versus raw milk [2]: 1.05
Compound: CC(=O)Nc1ccc(O)cc1 [Acetaminophen]
Solubility in Water at 25°C [1]: Sparingly Soluble (10–33 mg/mL)
Plasma Protein Binding (plasma protein): 20–25%
Ionization state at pH 7 [3]: Neutral

Compound: CN(C)CCC=C1c2ccccc2CCc2ccccc21 [Amitriptyline HCl]
Solubility in Water at 25°C [1]: Freely Soluble (100–1000 mg/mL)
Plasma Protein Binding (plasma protein): ~ 95%
Log P ([4]; free base): 5.0
Log P ([4]; pH 7.4): 3.0
pKa ([3]; base): 9.45 (base)
Ionization state at pH 7 [3]: Positively charged

Solubility, Raw Milk ([5]; 38°C, expressed as free form of cephapirin): 0.706 ± 0.021 mg/mL
Solubility, Reconstituted Whole Milk Powder (Nestle), Lot 1 ([5]; 38°C, milk powder Lot 1, expressed as free form of cephapirin): 0.740 ± 0.005 mg/mL
Solubility, Reconstituted Whole Milk Powder (Nestle), Lot 2 ([5]; 38°C, milk powder Lot 2, expressed as free form of cephapirin): 0.762 ± 0.028 mg/mL
USP solubility classification [5]: very slightly soluble
Solubility, Raw Milk [5, 7]: 0.476 ± 0.003 mg/mL
Solubility, Reconstituted Whole Milk Powder (Nestle) [5, 7]: 0.508 ± 0.006 mg/mL
Solubility, Skim Milk [5, 7]: 0.460 ± 0.007 mg/mL
Solubility, Whole Milk [5, 7]: 0.509 ± 0.010 mg/mL
Solubility, pH 6.8 buffer (control) [5, 7]: 0.352 ± 0.003 mg/mL
Compound: CC(=O)OCC1=C(C(=O)O)N2C(=O)[C@@H](NC(=O)CSc3ccncc3)[C@H]2SC1.CC(=O)OCC1=C(C(=O)O)N2C(=O)[C@@H](NC(=O)CSc3ccncc3)[C@H]2SC1.c1ccc(CNCCNCc2ccccc2)cc1 [Cephapirin Benzathine, Cephapirin benzathine]
Solubility in 0.1 N HCl (descriptive) ([1]; 0.1 N HCl): soluble
Solubility in alcohol (descriptive) ([1]; alcohol): freely soluble
Solubility in ether (descriptive) ([1]; ether): practically insoluble
Solubility in toluene (descriptive) ([1]; toluene): practically insoluble
Solubility in water (descriptive) [1]: practically insoluble

solubility at 60 min ([5]; 10 mM sodium phosphate buffer, pH 6.8, aqueous buffer, room temperature, expressed as free form of cephapirin, read-out: Solubility, pH 6.8 buffer (control)): > 200 mg/mL
USP solubility classification [5]: freely soluble
solubility at 60 min ([5]; bovine, 38 °C, plasma or biological fluid, reconstituted and raw milk, read-out: Solubility in reconstituted and raw milk): > 500 mg/mL
solubility at 60 min ([5]; bovine, milk vehicles (all tested media except the pH 6.8 buffer), plasma or biological fluid, all tested media with the exception of the pH 6.8 aqueous buffer, read-out: Solubility in the tested media): > 350 mg/mL
solubility at 60 min ([5]; bovine, raw milk, plasma or biological fluid, 38°C, expressed as free form of cephapirin, read-out: Solubility, Raw Milk): > 500 mg/mL
solubility at 60 min ([5]; bovine, raw milk, plasma or biological fluid, room temperature, expressed as free form of cephapirin, read-out: Solubility, Raw Milk): > 350 mg/mL
solubility at 60 min ([5]; bovine, reconstituted whole milk powder (Nestle), plasma or biological fluid, room temperature, expressed as free form of cephapirin, read-out: Solubility, Reconstituted Whole Milk Powder (Nestle)): > 350 mg/mL
solubility at 60 min ([5]; bovine, skim milk, plasma or biological fluid, room temperature, expressed as free form of cephapirin, read-out: Solubility, Skim Milk): > 350 mg/mL
solubility at 60 min ([5]; bovine, whole milk, plasma or biological fluid, room temperature, expressed as free form of cephapirin, read-out: Solubility, Whole Milk): > 350 mg/mL
solubility at 60 min ([5]; reconstituted whole milk powder (Nestle), plasma or biological fluid, 38°C, expressed as free form of cephapirin, read-out: Solubility, Reconstituted Whole Milk Powder (Nestle)): > 500 mg/mL
Compound: CC(=O)OCC1=C(C(=O)O)N2C(=O)[C@@H](NC(=O)CSc3ccncc3)[C@H]2SC1 [Cephapirin Sodium, Cephapirin sodium]
Solubility in most organic solvents (descriptive) ([1]; most organic solvents): insoluble
Solubility in water (descriptive) [1]: very soluble

Ratio of solubility, Reconstituted whole milk versus raw milk [2]: 1.16
Ratio of solubility, Skim milk versus raw milk [2]: 1.04
Ratio of solubility, Whole milk versus raw milk [2]: 1.08
Ratio of solubility, pH 6.8 buffer versus raw milk [2]: 0.64
Compound: C[C@@H]1C[C@H]2[C@@H]3CCC4=CC(=O)C=C[C@]4(C)[C@@]3(F)[C@@H](O)C[C@]2(C)[C@@]1(O)C(=O)CO [Dexamethasone]
Solubility in Water at 25°C [1]: Practically Insoluble (≤ 0.1 mg/mL)
Plasma Protein Binding (plasma protein): ~77%
pKa ([3]; in words): Non-ionizable
Ionization state at pH 7 [3]: Neutral

Compound: CN1C(C(=O)Nc2ccccn2)=C(O)c2ccccc2S1(=O)=O [Piroxicam]
Solubility in Water at 25°C [1]: Practically Insoluble (≤ 0.1 mg/mL)^c
Plasma Protein Binding (plasma protein): ~ 99%
Log P ([4]; pH 6.5): -1.33
Log P ([4]; pH 6.6): 0.72
Solubility in aqueous buffer ([6]; aqueous buffer): 0.287 ± 0.019 mg/mL (≈ 866 µM)
Solubility in skim milk ([6]; skim milk): 0.262 ± 0.005 mg/mL (≈ 791 µM)

Compound: C[C@]12C=CC(=O)C=C1CC[C@@H]1[C@@H]2[C@@H](O)C[C@@]2(C)[C@H]1CC[C@]2(O)C(=O)CO [Prednisolone]
Plasma Protein Binding (plasma protein): 60–90%
Log P [4]: ~ 1.6
pKa ([3]; in words): Non-ionizable
Ionization state at pH 7 [3]: Neutral
